As usually defined, the EC50 is the concentration that produces a half-maximal response. By AUC(0-t) is commonly meant exposure summed from dosing to a finite time, without extrapolation to infinity. A high value points to more exposure.

Structures are written as SMILES.

The target of one data set is CFTR G551D (Homo sapiens, UniProt P13569, G551D). Description: TECC assay, FRT cells stably transfected with G551D CFTR. Format: cell-based. To be noted: high expression CFTR-G551D cells, several values in a cell = repeat determinations. How it is done:
7.2.3. FRT-CFTR G551D Protocol
For G551D recordings, Fish Rat Thyroid (FRT) cells stably transfected with G551D CFTR (a low CFTR-G551D expressing cell line and a high expressing CFTR-G551D cell line from Rosalind Franklin University of medicine and science, Chicago, Ill.) are plated on Transwell supports (Costar 6.5 mm Diameter, […]). The cells are grown for 8-10 d under liquid-liquid interface conditions prior to electrophysiological readings. For electrophysiological recording, the FRT-G551D cells are mounted in the TECC heating plate for electrophysiological measurement and kept at 37° C. The epithelia are bathed in hepes buffered culturing medium without FBS on both the basolateral and apical sides. Apical amiloride is used to inhibit the endogenous ENaC currents while forkolin is applied on both apical and basolateral side to stimulate CFTR. After forskolin triggering, compounds are added on both sides to test their potential for increasing CFTR gating. Measurements are done during a 10 minute timeframe with recordings every 2 min. The increase in ISC is used as a measure for the increased CFTR activity, EC50 values can be generated by measuring impact of different concentrations of compound on ISC on the cells, for this purpose each transwell is treated with a different compound concentration. Inh-172, an inhibitor specific for CFTR, is used to test the specificity of the tested compounds.
When subjected to this protocol, the following EC50 are measured.

Data set [1] addresses T1, CFTR ΔF508 mutant (Homo sapiens, UniProt P13569, DEL508-508).
T1 construct: expressed in transfected cells; host or cells: CFBE41o- (adenoviral transduction)
The data set can be described thus: YFP-halide influx assay for the CFTR-ΔF508 mutation (96 well, CFBE41o- cells). Conditions: compounds of the invention, 96 well, forskolin 10.67 μM, read-out: EC50 measured by YFP-halide influx assay for the CFTR-ΔF508. Format: cell-based. Summed up:
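CFBE41o- cells were adenovirally transduced with CFTR ΔF508 and the halide-sensitive YFP H148Q/I152L. They were then corrected either at 27 °C for 24 h or with a CFTR modulator for 24 h at 37 °C. After iodide injection, YFP quenching over 7 s was expressed as 1−F/F0, and EC50 was derived from the concentration–response plot.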

For data set [2], the target named is T1, CFTR ΔF508 mutant. The data set can be described thus: YFP-halide influx assay for the CFTR-ΔF508 mutation (384 well, CFBE41o- cells, FDSS/μCell). Format: cell-based. Conditions: forskolin 10.67 μM, fluorescence after 36 seconds, read-out: EC50 measured by YFP-halide influx assay for the CFTR-ΔF508. The essentials: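 CFBE41o- cells were adenovirally transduced with ΔF508 CFTR and the YFP H148Q/I152L reporter. Cells were then held 24 h at 27 °C or treated 24 h at 37 °C with a CFTR modulator. Iodide-induced quench was recorded for 2 min, and EC50 was derived from 1−F/F0 at 36 s against compound concentration.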

A further data set concerns the target T2, CFTR G551D mutant (Homo sapiens, UniProt P13569, G551D).
T2 construct: expressed in transfected cells; host or cells: HEK293 (reverse transfection with plasmids)
The data set can be described thus: YFP-halide influx assay for the CFTR-G551D mutation (HEK293 cells). Format: cell-based. Conditions: HEK293 cells expressing CFTR G551D and YFP reporter; forskolin 10.67 μM; read-out: EC50 measured by YFP-halide influx assay for the CFTR-G551D. The essentials:
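HEK293 cells reverse-transfected with CFTR G551D and halide-sensitive YFP, expressed 24 h at 37 °C. Iodide-induced fluorescence quench recorded for 7 s after I^− injection; response as 1−F/F0, EC50 from concentration plot.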

The nature of a further data set: Lung distribution study. Format: in vivo, Sprague-Dawley rats. To be noted: male, Sprague-Dawley, rat, plasma, oral, 10 mg/kg, exposure values. The protocol: Sprague-Dawley rats (male, 5-6 weeks old) are obtained from Janvier (France). Rats are acclimatized for at least 5 days before treatment and are kept on a 12 h light/dark cycle. Temperature is maintained at approximately 22° C., and food and water are provided ad libitum. Two days before administration of the test compounds, rats may undergo surgery to place a catheter in the jugular vein under isoflurane anesthesia. After the surgery, rats are housed individually. Rats are deprived of food for at least 16 h before oral dosing and 6 h after. Water is provided ad libitum.
8.7.3. Lung Distribution Studies
Compounds are formulated in 0.5% methylcellulose and EtOH/PEG 200/Methylcellulose 0.5% (10/25/65 v/v/v) by the oral route. Test compounds are orally dosed as a single esophageal gavage at 10 mg/kg under a dosing volume of 5 mL/kg. Each group consists of 12 rats. At each time point, typically 1, 3, 6 and 24 h, animals are euthanized and blood and lung samples are collected. Whole blood samples are centrifuged at 1500 g for 10 min and the resulting plasma samples, along with the lung samples, are stored at −20° C. pending analysis.
8.7.4. Quantification of Compound Levels in Plasma and Lung Samples
Lung samples are milled in the presence of ceramic beads and proteins present in plasma and lung samples are precipitated with an organic solvent. Concentrations of each test compound are determined by an LC-MS/MS method in which the mass spectrometer is operated in positive or negative electrospray mode.
For each animal, the lung-to-plasma ratio is determined as the ratio between compound concentration in lung and in plasma. At each sampling time point, mean, standard error of the mean (sem) and coefficient of variation (CV %) are calculated using data from three animals.

T1 sequence (P13569 with tags, fused parts or gaps DEL508-508): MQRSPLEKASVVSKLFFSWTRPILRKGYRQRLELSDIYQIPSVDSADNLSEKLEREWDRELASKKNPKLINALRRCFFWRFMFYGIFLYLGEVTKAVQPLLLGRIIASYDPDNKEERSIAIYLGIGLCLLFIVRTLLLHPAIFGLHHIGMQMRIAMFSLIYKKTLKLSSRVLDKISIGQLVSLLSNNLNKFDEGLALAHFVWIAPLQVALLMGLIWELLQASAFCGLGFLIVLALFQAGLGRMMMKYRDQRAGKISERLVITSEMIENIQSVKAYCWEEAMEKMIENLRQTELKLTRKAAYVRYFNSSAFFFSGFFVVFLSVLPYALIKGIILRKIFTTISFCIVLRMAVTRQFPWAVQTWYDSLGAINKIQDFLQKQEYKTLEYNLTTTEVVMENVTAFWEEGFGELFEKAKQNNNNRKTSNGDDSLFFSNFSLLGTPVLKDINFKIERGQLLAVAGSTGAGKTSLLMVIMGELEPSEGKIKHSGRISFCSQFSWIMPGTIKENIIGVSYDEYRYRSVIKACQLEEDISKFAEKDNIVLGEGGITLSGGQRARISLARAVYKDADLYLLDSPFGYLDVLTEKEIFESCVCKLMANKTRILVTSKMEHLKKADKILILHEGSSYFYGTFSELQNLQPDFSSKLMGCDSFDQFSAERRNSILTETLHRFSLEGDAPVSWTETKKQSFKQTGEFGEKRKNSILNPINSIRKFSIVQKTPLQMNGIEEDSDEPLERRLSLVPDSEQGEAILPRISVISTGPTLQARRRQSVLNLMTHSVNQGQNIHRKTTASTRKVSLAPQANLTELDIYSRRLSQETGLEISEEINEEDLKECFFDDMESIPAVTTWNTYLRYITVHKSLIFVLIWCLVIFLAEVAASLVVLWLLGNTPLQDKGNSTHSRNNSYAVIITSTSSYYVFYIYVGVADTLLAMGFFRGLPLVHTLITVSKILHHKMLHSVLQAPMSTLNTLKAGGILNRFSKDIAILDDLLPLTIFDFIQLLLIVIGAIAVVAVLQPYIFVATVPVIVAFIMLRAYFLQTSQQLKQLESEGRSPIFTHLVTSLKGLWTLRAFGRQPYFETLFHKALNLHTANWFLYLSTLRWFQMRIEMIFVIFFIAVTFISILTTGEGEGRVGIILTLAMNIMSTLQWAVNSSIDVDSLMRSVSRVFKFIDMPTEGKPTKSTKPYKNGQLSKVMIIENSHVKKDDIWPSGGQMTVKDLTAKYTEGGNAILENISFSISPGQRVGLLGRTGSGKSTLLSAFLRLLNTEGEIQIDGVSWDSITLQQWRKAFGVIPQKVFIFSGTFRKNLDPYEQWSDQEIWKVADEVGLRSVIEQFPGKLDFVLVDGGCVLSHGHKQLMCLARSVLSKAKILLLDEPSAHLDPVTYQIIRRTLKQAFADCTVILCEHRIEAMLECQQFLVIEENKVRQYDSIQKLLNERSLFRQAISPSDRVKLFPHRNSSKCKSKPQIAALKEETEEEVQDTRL
Sequence of CFTR G551D (P13569 whole entry G551D): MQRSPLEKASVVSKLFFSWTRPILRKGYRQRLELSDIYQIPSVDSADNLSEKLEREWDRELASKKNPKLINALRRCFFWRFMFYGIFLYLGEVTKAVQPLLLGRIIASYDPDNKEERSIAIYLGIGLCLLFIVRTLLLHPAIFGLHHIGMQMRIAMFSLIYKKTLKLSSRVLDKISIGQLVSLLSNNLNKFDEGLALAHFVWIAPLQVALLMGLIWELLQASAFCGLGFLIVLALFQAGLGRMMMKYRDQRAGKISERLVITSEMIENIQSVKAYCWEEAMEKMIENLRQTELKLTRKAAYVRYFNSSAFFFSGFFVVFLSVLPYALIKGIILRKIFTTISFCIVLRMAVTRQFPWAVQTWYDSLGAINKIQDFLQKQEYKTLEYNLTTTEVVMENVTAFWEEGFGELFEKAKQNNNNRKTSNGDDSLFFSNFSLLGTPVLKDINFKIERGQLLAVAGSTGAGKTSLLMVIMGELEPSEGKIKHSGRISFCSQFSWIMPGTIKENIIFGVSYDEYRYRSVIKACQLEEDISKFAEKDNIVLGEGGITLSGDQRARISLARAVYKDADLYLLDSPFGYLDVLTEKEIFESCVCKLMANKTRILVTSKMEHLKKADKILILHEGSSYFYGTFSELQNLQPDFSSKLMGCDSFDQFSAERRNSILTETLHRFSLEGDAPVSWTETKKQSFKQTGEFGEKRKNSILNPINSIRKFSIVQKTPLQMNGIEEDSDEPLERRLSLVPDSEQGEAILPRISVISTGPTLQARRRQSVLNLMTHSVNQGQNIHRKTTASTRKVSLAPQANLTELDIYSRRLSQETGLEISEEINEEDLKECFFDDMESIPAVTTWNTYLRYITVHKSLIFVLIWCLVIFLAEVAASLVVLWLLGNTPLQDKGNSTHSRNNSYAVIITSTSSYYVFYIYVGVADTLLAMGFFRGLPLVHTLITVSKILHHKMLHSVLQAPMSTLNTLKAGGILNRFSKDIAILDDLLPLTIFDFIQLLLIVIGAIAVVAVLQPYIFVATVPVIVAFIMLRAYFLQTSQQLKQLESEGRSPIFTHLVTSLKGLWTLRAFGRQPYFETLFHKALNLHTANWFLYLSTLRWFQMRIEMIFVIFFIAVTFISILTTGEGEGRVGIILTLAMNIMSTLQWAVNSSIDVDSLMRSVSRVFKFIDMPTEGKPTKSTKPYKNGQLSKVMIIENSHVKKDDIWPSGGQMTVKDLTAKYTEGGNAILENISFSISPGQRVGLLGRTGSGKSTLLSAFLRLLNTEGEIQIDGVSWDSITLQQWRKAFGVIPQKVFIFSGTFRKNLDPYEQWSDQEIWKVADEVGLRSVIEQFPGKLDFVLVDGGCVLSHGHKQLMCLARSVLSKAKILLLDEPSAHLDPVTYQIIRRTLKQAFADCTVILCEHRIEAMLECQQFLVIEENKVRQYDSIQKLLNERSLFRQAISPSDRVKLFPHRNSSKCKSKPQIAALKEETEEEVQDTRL
T2 sequence (P13569 whole entry G551D): as above

Turning to `CC1(C)Cc2c(sc(NC(=O)c3[nH]ncc3Cl)c2C(N)=O)C(C)(C)O1` [Compound 25, N-(3-carbamoyl-5,5,7,7-tetramethyl-5,7-dihydro-4H-thieno[2,3-c]pyran-2-yl)-4-chloro-1H-pyrazole-3-carboxamide], the EC50 is 70 nM at CFTR G551D, 4.14 nM on CFTR ΔF508 mutant [1], 2.25 nM on CFTR ΔF508 mutant [2] and 80.6 nM on CFTR G551D mutant. The AUC(0-t) in the data set “Lung distribution study” amounted to 439 ng·h/mL.

These data come from patent US9351955B2, “Compounds and pharmaceutical compositions thereof for the treatment of cystic fibrosis” (Galapagos NV, priority 2013, dated 2016).
